The values below come from patent US8283367B2, “Proteasome inhibitors and methods of using the same” (Cephalon, Inc., priority 2005, dated 2012).

As a reminder, the melting point is the temperature of the solid-liquid transition. Take `CC(C)C[C@H](NC(=O)[C@@H](NC(=O)c1cncc(-c2ccccc2)c1)[C@@H](C)O)B1O[C@@H]2C[C@@H]3C[C@@H](C3(C)C)[C@]2(C)O1` [H.2.6, 5-Phenyl-pyridine-3-carboxamide, N-[(1S,2R)-1-[[[(1R)-1-[(3aS,4S,6S,7aR)-hexahydro-3a,5,5-trimethyl-4,6-methano-1,3,2-benzodioxaborol-2-yl]-3-methylbutyl]amino]carbonyl]-2-hydroxypropyl]]: the melting point was 135 to 140 °C.

The molecule `Cc1ccc(C(=O)NC[C@H](NC(=O)c2cccnc2)C(=O)N[C@@H](CC(C)C)B(O)O)cc1` [L.2.4, Boronic acid, [(1R)-1-[[(2 S)-3-[(4-methylbenzoyl)amino]-2-[(pyridine-3-carbonyl)amino]-1-oxopropyl]amino]-3-methyibutyl]] yielded a melting point of 220 to 222 °C.

Molecule `CC(C)C[C@H](NC(=O)[C@@H](NC(=O)c1ccc(-c2ccccc2)cn1)[C@@H](C)O)B(O)O` [K.2.7, Boronic acid, [(1R)-1-[[(2S,3R)-3-hydroxy-2-[(5-phenyl-pyridine-2-carbonyl)amino]-1-oxobutyl]amino]-3-methylbutyl]] showed a melting point of 190 to 195 °C.

With `Cc1ccc(C(=O)NC[C@H](NC(=O)c2cccc(-c3cccs3)n2)C(=O)N[C@@H](CC(C)C)B(O)O)cc1` [L.2.21], the melting point was in the range of 158 to 160 °C.

`CC(C)C[C@H](NC(=O)[C@@H](NC(=O)c1cc(-c2ccccc2)n[nH]1)[C@@H](C)O)B(O)O` [K.2.13, Boronic acid, [(1R)-1-[[(2S,3R)-3-hydroxy-2-[(5-phenyl-2H-pyrazole-3-carbonyl)amino]-1-oxobutyl]amino]-3-methylbutyl]] had a melting point of 232 to 236 °C.

The molecule `Cc1ccc(C(=O)NC[C@H](NC(=O)c2ccc3ccccc3n2)C(=O)N[C@@H](CC(C)C)B(O)O)cc1` [L.2.5, Boronic acid, [(1R)-1-[[(2 S)-3-[(4-methylbenzoyl)amino]-2-[(quinoline-2-carbonyl)amino]-1-oxopropyl]amino]-3-methylbutyl]] yielded a melting point of 235 to 237 °C.
